# Measurements reported in patent US20210308089A1, “METHODS OF TREATING AND/OR PREVENTING VIRAL INFECTIONS AND/OR DISEASES CAUSED BY VIRUSES IN A SUBJECT IN NEED THEREOF” (priority 2020, published 2021).
# System: patients of the REDUCE-IT and earlier EPA placebo-controlled trials
# Experiment: Example 3: adverse events by risk ratio, icosapent ethyl vs placebo (candidate categories; infectious disease terms of interest)
# Settings: R-I
# [1] = Age-Related Macular Degeneration
smiles,measurement,setting,value
"CC/C=C\C/C=C\C/C=C\C/C=C\C/C=C\CCCC(=O)OCC [icosapent ethyl, eicosapentaenoic acid ethyl ester]",Risk Ratio (95% CI): Cognitive Decline: Cognitive and attention disorders and disturbances (AE table),,1.000 (0.141 to 7.097) −1
same,Risk Ratio (95% CI): Cognitive Decline: Cognitive disturbances (AE table),,[No cases in study]
same,Risk Ratio (95% CI): Cough (AE table),,1.000 (0.841 to 1.189) −1
same,Risk Ratio (95% CI): Cystic Fibrosis (AE table),,[No cases in study]
same,Risk Ratio (95% CI): Decreased Appetite (AE table),,2.584 (1.329 to 5.024) −4
same,Risk Ratio (95% CI): Deep Venous Thromboembolism (AE table),,0.625 (0.205 to 1.909) 2
same,Risk Ratio (95% CI): Depression: Depressed mood disorders and disturbances (AE table),,1.106 (0.861 to 1.422) −1
same,Risk Ratio (95% CI): Depression: Depressive disorders (AE table),,1.123 (0.867 to 1.454) −1
same,Risk Ratio (95% CI): Depression: Depressive disorders - Agitated depression (AE table),,[2 drugs vs 0 PBO]
same,Risk Ratio (95% CI): Depression: Depressive disorders - Depression (AE table),,1.097 (0.843 to 1.428) −1
same,Risk Ratio (95% CI): Depression: Depressive disorders - Major depression (AE table),,3.001 (0.312 to 28.836) −4
same,Risk Ratio (95% CI): Depression: Depressive disorders - Persistent depressive disorder (AE table),,2.000 (0.181 to 22.053) −3
same,Risk Ratio (95% CI): Depression: Mood alterations - Depressed mood (AE table),,1.000 (0.290 to 3.452) −1
same,Risk Ratio (95% CI): Depression: Mood alterations - Depressive symptom (AE table),,0.500 (0.045 to 5.513) 3
same,Risk Ratio (95% CI): Depression: Mood alterations with depressive symptoms (AE table),,0.857 (0.288 to 2.549) 1
same,Risk Ratio (95% CI): Dermatitis psoriasiform (AE table),,[1 drug vs 0 PBO]
same,"Risk Ratio (95% CI): Dermatitis, allergic (AE table)",,0.250 (0.071 to 0.885) 4
same,Risk Ratio (95% CI): Diabetic Nephropathy (AE table),,0.909 (0.387 to 2.139) 1
same,Risk Ratio (95% CI): ESRD (AE table),,0.667 (0.111 to 3.989) 2
same,Risk Ratio (95% CI): Ear infection (AE table),,0.821 (0.515 to 1.307) 1
same,Risk Ratio (95% CI): Embolism and Thrombosis (AE table),,1.064 (0.716 to 1.581) −1
same,Risk Ratio (95% CI): Emphysema (AE table),,0.600 (0.294 to 1.266) 2
same,Risk Ratio (95% CI): Epilepsy (AE table),,1.000 (0.063 to 15.986) −1
same,Risk Ratio (95% CI): Erectile dysfunction (AE table),,0.784 (0.535 to 1.151) 2
same,Risk Ratio (95% CI): Furuncle (AE table),,0.500 (0.171 to 1.462) 3
same,"Risk Ratio (95% CI): Gastroenteritis, viral (AE table)",,0.789 (0.525 to 1.185) 2
same,Risk Ratio (95% CI): Gastroesophageal reflux (AE table),,0.333 (0.090 to 1.231) 4
same,Risk Ratio (95% CI): Gingivitis (AE table),,0.500 (0.171 to 1.462) 3
same,Risk Ratio (95% CI): Glomerulonephritis and Nephrotic Syndrome (AE table),,[0 drug vs 4 PBO]
same,Risk Ratio (95% CI): Guttate psoriasis (AE table),,[1 drug vs 0 PBO)
same,Risk Ratio (95% CI): Helicobacter infection (AE table),,0.556 (0.186 to 1.657) 3
same,Risk Ratio (95% CI): Hepatitis C (AE table),,[1 drug vs 0 PBO]
same,Risk Ratio (95% CI): Herpes Zoster (AE table),,0.960 (0.695 to 1.325) 1
same,Risk Ratio (95% CI): Herpes simplex (AE table),,0.625 (0.205 to 1.909) 2
same,Risk Ratio (95% CI): Hyperglycemia (AE table),,0.764 (0.562 to 1.037) 2
same,Risk Ratio (95% CI): Hyperkalemia (AE table),,0.582 (0.377 to 0.898) 3
same,Risk Ratio (95% CI): Hypertension (AE table),,0.930 (0.804 to 1.077) 1
same,Risk Ratio (95% CI): Hypertensive Crisis (AE Table),,0.698 (0.439 to 1.110) 2
same,Risk Ratio (95% CI): Hypokalemia (AE table),,1.064 (0.784 to 1.445) −1
same,Risk Ratio (95% CI): Hypomagnesemia (AE table),,0.675 (0.422 to 1.078) 2
same,Risk Ratio (95% CI): IgA Nephropathy (AE table),,[No cases in study]
same,Risk Ratio (95% CI): Infected bite (AE table),,0.714 (0.227 to 2.249) 2
same,Risk Ratio (95% CI): Influenza (AE table),,0.971 (0.824 to 1.144) 1
same,Risk Ratio (95% CI): Influenza like illness (AE table),,0.852 (0.489 to 1.483) 1
same,Risk Ratio (95% CI): Jaundice cholestatic (AE table),,[4 drug vs 0 PBO]
same,Risk Ratio (95% CI): Large intestine polyps (AE table),,0.385 (0.137 to 1.078) 4
same,Risk Ratio (95% CI): Limb Fractures and Dislocations (AE table),,0.883 (0.541 to 1.439) 1
same,Risk Ratio (95% CI): Lupus (AE table),,[0 drugs vs 1 PBO]
same,Risk Ratio (95% CI): Male Infertility (AE table),,[No cases in study]
same,Risk Ratio (95% CI): Microalbuminuria (AE table),,0.214 (0.062 to 0.745) 4
same,Risk Ratio (95% CI): Migraine (AE table),,2.751 (0.877 to 8.631) −4
same,Risk Ratio (95% CI): Mucosal inflammation (AE table),,0.600 (0.144 to 2.510) 2
same,Risk Ratio (95% CI): Multiple Sclerosis (AE table),,[0 drugs vs 1 PBO]
same,Risk Ratio (95% CI): Muscle spasms (AE table),,0.579 (0.421 to 0.795) 3
same,Risk Ratio (95% CI): NASH (AE table),,0.167 (0.020 to 1.384) 5
same,Risk Ratio (95% CI): NASH for b/l NFS >0.675 (AE table),,0.252 (0.028 to 2.251) 4
same,Risk Ratio (95% CI): NASH+Hepatic Steatosis for NFS >0.675 (AE table),,0.740 (0.342 to 1.601) 2
same,"Risk Ratio (95% CI): Nasopharyngitis, Mild Severity (AE table)",,0.975 (0.840 to 1.133) 1
same,Risk Ratio (95% CI): Nephrolithiasis (AE table),,1.050 (0.777 to 1.419) −1
same,Risk Ratio (95% CI): Nephropathies (AE table),,0.679 (0.380 to 1.213) 2
same,Risk Ratio (95% CI): Nephrotic Syndrome (AE table),,[0 drug vs 1 PBO]
same,Risk Ratio (95% CI): Orthopnea (AE table),,0.500 (0.151 to 1.660) 3
same,Risk Ratio (95% CI): PMS/Dysmenorrhea (AE table),,[No cases in study]
same,Risk Ratio (95% CI): PTSD (AE table),,0.667 (0.111 to 3.989) 2
same,Risk Ratio (95% CI): Pancytopenia (AE table),,0.556 (0.186 to 1.657) 3
same,Risk Ratio (95% CI): Pneumonia (AE table),,0.950 (0.807 to 1.118) 1
same,Risk Ratio (95% CI): Polycystic Ovarian Syndrome (AE table),,[No cases in study]
same,Risk Ratio (95% CI): Proteinuria (AE table),,0.609 (0.314 to 1.181) 2
same,Risk Ratio (95% CI): Psoriasis (AE table),,1.750 (0.949 to 3.230) −3
same,Risk Ratio (95% CI): Psoriatic Conditions (AE table),,1.875 (1.024 to 3.435) −3
same,Risk Ratio (95% CI): Psychosis: Psychotic disorder NEC (AE table),,0.500 (0.045 to 5.513) 3
same,Risk Ratio (95% CI): Pulmonary Edema (AE table),,0.556 (0.257 to 1.202) 3
same,Risk Ratio (95% CI): Rental Transplant (AE table),,[No cases in study]
same,Risk Ratio (95% CI): Respiratory Failure (AE table),,0.909 (0.497 to 1.664) 1
same,Risk Ratio (95% CI): Respiratory tract infection (AE table),,0.939 (0.629 to 1.401) 1
same,Risk Ratio (95% CI): Rheumatoid Arthritis (AE table),,[0 drug vs 3 PBO]
same,Risk Ratio (95% CI): Rhinitis (AE table),,0.727 (0.383 to 1.383) 2
same,Risk Ratio (95% CI): Schizophrenia NEC (AE table),,0.500 (0.045 to 5.513) 3
same,Risk Ratio (95% CI): Sepsis (AE table),,0.786 (0.499 to 1.237) 2
same,Risk Ratio (95% CI): Severe chronic obstructive pulmonary disease (AE table),,0.857 (0.458 to 1.607) 1
same,"Risk Ratio (95% CI): Severe dermatitis, allergic (AE table)",,0.250 (0.028 to 2.236) 4
same,Risk Ratio (95% CI): Severe gastroenteritis (AE table),,0.667 (0.273 to 1.630) 2
same,Risk Ratio (95% CI): Severe sepsis (AE table),,0.759 (0.437 to 1.318) 2
same,Risk Ratio (95% CI): Severe systemic inflammatory response syndrome (AE table),,0.167 (0.020 to 1.384) 5
same,Risk Ratio (95% CI): Severe urinary tract infection (AE table),,0.650 (0.324 to 1.305) 2
same,Risk Ratio (95% CI): Sickle Cell Disease (AE table),,[No cases in study]
same,Risk Ratio (95% CI): Systemic inflammatory response syndrome (AE table),,0.250 (0.053 to 1.177) 4
same,Risk Ratio (95% CI): Tooth infection (AE table),,0.690 (0.391 to 1.217) 2
same,Risk Ratio (95% CI): Ulcerative Colitis (AE table),,[0 drug vs 1 PBO]
same,Risk Ratio (95% CI): Vascular hypertensive disorder (AE table),,0.914 (0.796 to 1.050) 1
same,Risk Ratio (95% CI): Vulvovaginal mycotic infection (AE table),,0.455 (0.158 to 1.307) 3
same,Risk Ratio (95% CI): Wheezing (AE table),,0.639 (0.379 to 1.076) 2
same,ARR,ADHD,0.0%
same,NNT,ADHD,−8362005
same,Risk Ratio (95% CI),ADHD,1.000 (0.141 to 7.097) −1
same,ARR,Acute Myeloid Leukaemia,0.0%
same,NNT,Acute Myeloid Leukaemia,−8362005
same,Risk Ratio (95% CI),Acute Myeloid Leukaemia,1.000 (0.141 to 7.097) −1
same,ARR,[1],0.0%
same,NNT,[1],−4088
same,Risk Ratio (95% CI),[1],2.000 (0.181 to 22.053) −3
same,ARR,Alzheimer's Disease,0.0%
same,NNT,Alzheimer's Disease,−3344802
same,Risk Ratio (95% CI),Alzheimer's Disease,1.000 (0.290 to 3.452) −1
same,ARR,Asthma,0.1%
same,NNT,Asthma,−1019
same,Risk Ratio (95% CI),Asthma,1.076 (0.742 to 1.560) −1
